Measured values published in paper PMC7591920, “A protein tertiary structure mimetic modulator of the Hippo signalling pathway” (Nature Communications, 2020).
Bridge positions count the residues as written; N and C are the ends. Square brackets hold non-standard residues; d marks the D form. Peptide text beside a SMILES is read from it. AEEA = NCCOCCOCC(=O)O

What was measured:
[1] = test system: primary juvenile (P5–P6) rat cardiomyocytes; assay: Cell cycle activity assay (Ki67/αActinin) in juvenile rat cardiomyocytes; type: cell-based; settings: for Effect on cardiomyocyte cell cycle activity: P5–P6 rat heart cells, 4-days incubation, Ki67/αActinin double-positive cells; for Cell cycle activity, MEAN: c = 10 µM, 4 days, relative to DMSO-treated cells (100), mean of N = 6; for Dose-dependent cell cycle stimulation, MEAN: 4-day treatment, relative to DMSO (100), mean of n = 3
Method: One day after seeding, the cells were treated with test compounds of interest. Treatments were applied with an ECHO 520 acoustic dispenser (Labcyte) and medium was added to the wells. Four days after treatment, the cells were fixed with 4% formaldehyde (Roth) and immunostained in 0.2% Triton-X100 (Roth) in PBS (Gibco) supplemented with 5% FBS. […] Samples were then imaged and analysed on an ImageXpress XL automated microscope (Molecular Devices). Data are depicted as means ± SEM.

[2] = Circular dichroism, calculated helicity; type: physicochemical; settings: 10 mM sodium phosphate pH 7.4, 75 to 10 µM peptide, CDNN software PEPFIT mode, unbound peptide
Method: The spectra were obtained using a Jasco J-715 and a cuvette 0.1 mm. Represented CD spectra are an average of five measurements done between λ = 190 and 300 nm with a continuous scan mode, 50 nm min^−1 scan speed and data point every 1 nm. The α-helicity was calculated using CDNN software using the PEPFIT mode[42].

RKO cells = assay: Total drug content in RKO cells by UPLC-MS; settings: for Total drug content, Measured Concentration: RIPA total lysis, diluted lysate
Method: Peptides were incubated in RKO cells (ATCC, #CRL-2577) as follows: Experiment 1: RKO cells were incubated in 25 µM compound for 90 min and 24 h. Experiment 2: RKO cells were incubated in 25 µM for 30 min or 72 h. Following peptide incubation, the cells were washed twice with PBS, trypsinized and pelleted. The pellets were lysed in RIPA buffer (Perkin Elmer) for total lysis, or CelLytic NuCLEAR Extraction Kit (SIGMA) for subcellular fractionation. Total protein quantification BCA (Pierce) was performed prior to MS analysis to normalize sample data. Total and fractionated cell lysates were analysed by quantitative UPLC-MS utilizing a Waters Xevo TQ-XS (WBA0259) and an Acquity UPLC system from Waters consisting of Sample Manager (M16UFL953M), Acquity PDA (F17UPD457A), Column Oven (E17CMP703G) and Binary Solvent Manager (E17BUR621G). […] Chromatograms of the samples were treated similarly, and by linear regression (1/x) an in-cell concentration was established in the re-suspended cell lysate using the Waters MassLynx TargetLynx^TM product.

[3] = Peptide stability in cell culture media with 10% FBS; settings: 30 µM peptide, MEM + 10% FBS, 37 °C, HPLC/MS, duplicates
Method: A total of 30 µM of the peptide was incubated in MEM media supplemented with 10% FBS at 37 °C. At the indicated time point, 25 µL of the sample was withdrawn, mixed with an equal volume of the internal standard solution (6 µM Fmoc-Arg(Pbf)-OH), kept on ice for 15 min followed by centrifugation (16×g) at 4 °C for 5 min. The supernatant was analysed with LC-MS (UltiMate 3000 UHPLC Systems) using C18 reverse phase column (Nucleodur, 1.8 µm C18 gravity, 2 mm) and Thermo Orbitrap Velos Pro ETD. The peptide absorbance (λ = 280 nm) or the mass spectrometry peak intensity relative to that of the internal standard peak intensity was graphed. The stability experiments were performed in duplicates.

hTEAD1–VGL4 complex = target: T1, hTEAD1–VGL4 complex (Homo sapiens, UniProt P28347); assay: Competitive FP, displacement of labelled VGL4(203–256) from hTEAD1; type: binding
T1 construct: CDNA of hTEAD1(209–426) fused with an N-terminal GST tag; GST (N); 6x His-tag (N); 3C protease cleavage site (N); made in house; host or cells: Escherichia coli BL21 DE3 RIL(K+); tracer peptide synthetic
Method: Next, the ability of the peptides in our panel to inhibit the TEAD–VGL4 interaction was investigated. For this purpose, a competition pull-down experiment was performed using biotinylated VGL4(203–256) (b-1) as the bait for GST-tagged hTEAD1. b-1 was immobilized on streptavidin magnetic beads and hTEAD1 pull-down was detected using gel electrophoresis (Fig. 3d). […] To evaluate how inhibitor binding discriminates between these two binding partners, we performed a competitive binding assay based on FP.
Supplementary Figure 15│ Binding studies of hTEAD1 by fluorescence polarization. Dissociation constants were measured […]
The fluorescent cofactor (10 nM) are directly titrated with hTEAD1. After 1 hour of incubation, fluorescence polarization was measured, and a non-linear fitting was applied to the curves to determine the […]
In the competitive binding assay, first a complex with the fluorescent cofactor (10 nM) and hTEAD1 (100 nM) was formed and after 1 hour of incubation, the unlabelled peptide was titrated. After 1 hour of incubation, fluorescence polarization was measured, and a non-linear fitting was applied to the curves to determine the half maximal inhibitory concentration. (c) Competition assay […]
Mean ± SEM of triplicates were plotted for all data. Source data are provided as a Source Data file.
(1 picture or pasted object on this page, not shown here)

YAP = YAP localization assay in juvenile rat cardiomyocytes; type: cell-based; settings: for YAP ratio (nucleus/cytoplasm), Mean: 4 h, primary juvenile rat cardiomyocytes, DMSO mean 2.99; for YAP ratio in cardiomyocytes (nucleus/cytoplasm): fluorescence immunocytochemistry, 8 Hours, mean of n = 3
Method: We analysed the YAP sub-cellular distribution in cardiomyocytes by means of fluorescence intensity after immunocytochemistry. After 3 days in culture, the cardiac cells were treated and fixed 4, 8, and 24 h after treatment. […] Secondary antibodies were used to detect the primary antibodies (goat anti-mouse Alexa Fluor 568, A-11004, dilution 1:1000 and goat anti-rabbit AlexaFluor 488, A-11008, dilution 1:1000, both from Thermo Fisher Scientific) and nuclei were counterstained with DAPI (2-(4-amidinophenyl)-1H-indole-6-carboxamidine, dilution 1:1000, Roth). The samples were then imaged and analysed on an ImageXpress XL automated microscope (Molecular Devices). […] Data are depicted as means ± SEM.

TEAD target genes = assay: qPCR analysis of TEAD target genes in cardiomyocytes from human ES cell line (H7); type: cell-based; settings: c = 30 µM, t = 18 h
[4] = 25 µM compound, 24 hours, UPLC-MS, n = 2
[5] = 25 µM compound, 24 hours, total lysis, UPLC-MS, n = 2
[6] = total drug content, 25 µM compound, 90 minutes, mean of 2 replicates

T1 sequence (P28347 209-426, one chain of several): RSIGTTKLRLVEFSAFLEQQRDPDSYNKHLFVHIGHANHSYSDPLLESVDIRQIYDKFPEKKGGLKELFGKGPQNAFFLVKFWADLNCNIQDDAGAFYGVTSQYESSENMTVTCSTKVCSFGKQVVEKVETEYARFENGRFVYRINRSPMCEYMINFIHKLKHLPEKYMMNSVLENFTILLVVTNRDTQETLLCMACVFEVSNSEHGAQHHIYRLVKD

With `CC[C@H](C)[C@@H]1NC(=O)[C@H](CCC(N)=O)NC(=O)[C@H](CC(C)C)NC(=O)[C@H](Cc2c[nH]c3ccccc23)NC(=O)[C@H]([C@@H](C)O)NC(=O)[C@H](CC(=O)O)NC(=O)CNC(=O)[C@H](CC(C)C)NC(=O)[C@H](C)NC(=O)[C@H](CCCCN)NC(=O)[C@H](C)NC(=O)[C@H](Cc2ccccc2)NC(=O)[C@H](Cc2c[nH]cn2)NC(=O)[C@H](CC(=O)O)NC(=O)[C@@H](NC(=O)[C@@H](NC(=O)[C@H](CO)NC(C)=O)C(C)C)CCC(=O)NCCCC[C@@H](C(=O)N[C@@H](C)C(=O)N[C@@H](C)C(N)=O)NC1=O` [4E] (Ac-SVEDHFAKALGDTWLQIKAA-NH2; lactam 3-18) as the compound, how does the “Effect on cardiomyocyte cell cycle activity” value [1] read?
Its value is “has no effect”.

And the “Cell cycle activity, MEAN” value [1]?
The value was 92.7542.

And the “Helicity (CD)” value [2]?
Its value is 23%.

What about the “Total drug content, Measured Concentration” value (RKO cells; [4]) of the same compound?
Its value is “< LLOQ”.

What about the “Total drug content, nMol” value (RKO cells; [5]) of the same compound?
The value was “< LLOQ”.

What about the “Total drug content, pMol.mg-1” value (RKO cells; 25 µM compound, 24 hours, total lysis, UPLC-MS, normalised to BCA protein, n = 2) of the same compound?
The value was “< LLOQ”.

What about the “pMol/mg of protein, Mean” value (RKO cells; [6]) of the same compound?
The value was 424.4 pMol/mg of protein.

With `CC[C@H](C)[C@@H]1NC(=O)[C@H](CCC(N)=O)NC(=O)[C@H](CC(C)C)NC(=O)[C@H](Cc2c[nH]c3ccccc23)NC(=O)[C@H]([C@@H](C)O)NC(=O)[C@H](CC(=O)O)NC(=O)CNC(=O)[C@H](CC(C)C)NC(=O)[C@H](C)NC(=O)[C@H](CCCCN)NC(=O)[C@H](C)NC(=O)[C@H](Cc2ccccc2)NC(=O)[C@H](Cc2c[nH]cn2)NC(=O)[C@H](CC(=O)O)NC(=O)[C@@H](NC(=O)[C@@H](NC(=O)[C@H](CO)NC(=O)COCCOCCNC(=O)[C@H](CCC(N)=O)NC(=O)[C@@H]2CCCN2C(=O)[C@H](CCCNC(=N)N)NC(=O)[C@H](CCCNC(=N)N)NC(=O)[C@H](CCCNC(=N)N)NC(=O)[C@H](CCC(N)=O)NC(=O)[C@H](CCCNC(=N)N)NC(=O)[C@H](CCCNC(=N)N)NC(=O)[C@H](CCCCN)NC(=O)[C@H](CCCCN)NC(=O)[C@H](CCCNC(=N)N)NC(=O)CNC(C)=O)C(C)C)CCC(=O)NCCCC[C@@H](C(=O)N[C@@H](C)C(=O)N[C@@H](C)C(N)=O)NC1=O` [compound 7] (Ac-GRKKRRQRRRPQ[AEEA]SVEDHFAKALGDTWLQIKAA-NH2; lactam 16-31) as the compound, how does the “peptide intact after 24 h” value [3] read?
The value was “about 80%”.

What about the “Dose-dependent cell cycle stimulation, MEAN” value ([1]; 1 mM (so in the source)) of the same compound?
The value was 106.813.

What about the “Dose-dependent cell cycle stimulation, MEAN” value ([1]; 5 mM (so in the source)) of the same compound?
Its value is 131.729.

What about the “Dose-dependent cell cycle stimulation, MEAN” value ([1]; 10 mM (so in the source)) of the same compound?
The value was 172.672.

And the “Effect on cardiomyocyte cell cycle activity” value [1]?
The value was “stimulates cell cycle activity to the same extent as positive controls”.

What about the “Cell cycle activity, MEAN” value [1] of the same compound?
Its value is 148.037.

What about the “required concentration for VGL4 competition in the homogeneous FP-based competition assay” value (hTEAD1–VGL4 complex; hTEAD1) of the same compound?
The value was “ca. 10 µM”.

What about the IC50 (hTEAD1–VGL4 complex; labelled VGL4(203–256) 10 nM + hTEAD1 100 nM pre-incubated 1 h, unlabelled peptide titrated, 1 h, triplicates, read-out: IC50, inhibition of hTEAD1–VGL4 complex) of the same compound?
The IC50 was 5.46 ± 0.253 µM.

And the “YAP ratio (nucleus/cytoplasm), Mean” value (YAP; 5 µM)?
The value was 3.475.

And the “YAP ratio (nucleus/cytoplasm), Mean” value (YAP; 5 µM, listed as peptide 7)?
Its value is 3.48.

And the “YAP ratio (nucleus/cytoplasm), Mean” value (YAP; 10 µM)?
Its value is 5.895.

What about the “YAP ratio (nucleus/cytoplasm), Mean” value (YAP; 10 µM, listed as peptide 7) of the same compound?
Its value is 5.89.

And the “YAP ratio in cardiomyocytes (nucleus/cytoplasm)” value (YAP; 5 µM of 7)?
The value was 2.607.

And the “YAP ratio in cardiomyocytes (nucleus/cytoplasm)” value (YAP; 10 µM of 7)?
The value was 3.272.

And the “Effect on sub-cellular distribution of YAP” value (YAP; juvenile rat cardiomyocytes, 4 h treatment, vs vehicle control)?
Its value is “increased nuclear accumulation of YAP”.

And the “Effect on expression of TEAD target genes” value (TEAD target genes; qPCR)?
Its value is “increased levels of the cell cycle genes CYR61, CTGF, ANKRD1, and SEPINE1”.

And the “RQ (relative target quantity)” value (TEAD target genes; target gene ANKRD1, RT-qPCR)?
Its value is 4.731.

What about the “RQ (relative target quantity)” value (TEAD target genes; target gene CTGF, RT-qPCR) of the same compound?
Its value is 1.987.

What about the “RQ (relative target quantity)” value (TEAD target genes; target gene CYR61, RT-qPCR) of the same compound?
The value was 3.964.

And the “RQ (relative target quantity)” value (TEAD target genes; target gene SERPINE1, RT-qPCR)?
Its value is 3.52.

And the “Total drug content, Measured Concentration” value (RKO cells; 25 µM compound, 90 minutes, UPLC-MS, n = 2)?
The value was 122.09 ± 7.277 nM.

And the “Total drug content” value (RKO cells; 25 µM compound, 90 minutes, total lysis, UPLC-MS, n = 2)?
The value was 0.1831 ± 0.01091 nmol.

What about the “Total drug content, Measured Concentration” value (RKO cells; [4]) of the same compound?
The value was 91.646 ± 61.816 nM.

What about the “Total drug content” value (RKO cells; [5]) of the same compound?
The value was 0.1375 ± 0.09272 nmol.

And the “loss of total concentration between 90 min and 24 h incubation” value (RKO cells; 25 µM, authors' response in peer review file)?
The value was 30%.

And the “Measured Conc” value (RKO cells; total drug content, 25 µM compound, 90 minutes, UPLC-MS, dilution factor 10, replicate 1)?
The value was 114.813 nM.

And the “Measured Conc” value (RKO cells; total drug content, 25 µM compound, 90 minutes, UPLC-MS, dilution factor 10, replicate 2)?
The value was 129.367 nM.

What about the “pMol/mg of protein, Mean” value (RKO cells; [6]) of the same compound?
The value was 183.0 pMol/mg of protein.

And the “Measured Conc” value (RKO cells; total drug content, 25 µM compound, 24 hours, UPLC-MS, dilution factor 10, replicate 1)?
The value was 153.462 nM.

What about the “Measured Conc” value (RKO cells; total drug content, 25 µM compound, 24 hours, UPLC-MS, dilution factor 10, replicate 2) of the same compound?
The value was 29.83 nM.

And the “pMol/mg, Mean” value (RKO cells; total drug content, 25 µM compound, 24 hours, mean of 2 replicates)?
Its value is 127.1 pMol/mg.
